Laboratory results reported in US8143031B2, “Production of N-acylated sulphur-containing amino acids with microorganisms having enhanced N-acyltransferase enzymatic activity” (Metabolic Explorer, priority 2008, dated 2012).

Assays:
[1] = molecular target: Pseudomonas PA4866 protein (Pseudomonas aeruginosa, UniProt Q9HUU7); details: cited from earlier work
[2] = molecular target: T1, YncA (Escherichia coli, UniProt P76112); test: DTNB-based substrate and acyl-donor specificity test of YncA; assay type: biochemical, E. coli; details: for % Activity (activity with respect to the substrate methionine): methionine = 100; for Activity as substrate of YncA (in words): DTNB-based assay; for % Activity (activity of YncA with respect to the co-substrate Acetyl-coA): Acetyl-coA = 100
T1 construct: The purified protein was identified as YncA, a GCN5 related acyl transferase; made in house; host or cells: Untagged endogenous activity purified chromatographically from broken cells; E. coli is inferred
Experimental: (§1) Methionine L-amino-acid-N-acyl transferase activity was followed in microtiter plates by monitoring the apparition of HS-CoA with DTNB. The reaction solution, to which the sample was added, contained 200 mM Tris-HCl, pH 9.0, […], 3 mM Acetyl-coA and 20 mM methionine. Formation of the DTNB-CoA complex was monitored at 408 nm using a μQuant microtiter plate reader (BioTek Instruments, Inc., USA).
The substrate specificity was tested using the DTNB-based assay (see above).

[3] = compared with pure methionine; cited from earlier work
[4] = compared with the L-isomer; cited from earlier work
[5] = MNAT activity test in vitro of purification fractions (DTNB, acetyl-coA, methionine); assay type: biochemical, E. coli; details: purification steps
Experimental: as §1
˜3 g of dry weight cells were rinsed 3 times with extraction buffer (EB) (50 mM phosphate, pH 7.0, 50 μM PLP, 500 μM DTT) and suspended in 70 mL EB. Cells were broken by sonication using a Rosett cell with a Bandelin Sonoplus ultrasonic homogenizer (Bandelin Electronic, Germany) equipped with a UW2070 probe and a SH70G tip (6 burst, 30 s, 100% efficiency, 75 W). The crude extract was centrifuged (30 min, 12.000 g, 4° C.) and solid ammonium sulfate was added to the supernatant to a final concentration of 2.3 M, and incubated on ice for 30 min. The solution was centrifuged (15 min, 15.000 g, 4° C.) and the pellet suspended in 40 mL phosphate buffer (50 mM phosphate, pH 7.0). Solid ammonium sulfate was added to a final concentration of 1.5 M, and the solution was incubated on ice for 30 min and then centrifuged (15 min, 15.000 g, 4 C). […]

[6] = Acetyl-coA as acyl-donor, various substrates
[7] = methionine as substrate, various acyl-donors

Pseudomonas PA4866 protein, sequence (Q9HUU7 whole entry): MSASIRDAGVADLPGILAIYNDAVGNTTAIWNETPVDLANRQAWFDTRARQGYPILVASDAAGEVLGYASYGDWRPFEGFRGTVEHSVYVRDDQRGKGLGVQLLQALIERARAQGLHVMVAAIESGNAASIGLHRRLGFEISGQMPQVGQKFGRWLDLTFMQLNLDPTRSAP

In the case of CSCC[C@H](N)C(=O)O [Methionine], the “Acetylation by Pseudomonas PA4866 protein” value [1] is given as “did not acetylate”, the “% Activity (activity with respect to the substrate methionine)” value ([2]; Acetyl-coA as acyl-donor) is given as 100% and the “Specific Activity” value [2, 6] is given as 745 mUI/mg protein. The “Activity as substrate of YncA (in words)” value [2] was “Strong activities”.

In the case of CSCC[C@H](NC(C)=O)C(=O)O [NAM, N-acetyl-L-methionine], the Methionine-sparing value [3] is given as “same methionine-sparing value as pure methionine”.

For CC(=O)SCCNC(=O)CCNC(=O)[C@H](O)C(C)(C)COP(=O)(O)OP(=O)(O)OC[C@H]1O[C@@H](n2cnc3c(N)ncnc32)[C@H](O)[C@@H]1OP(=O)(O)O [Acetyl-coA], the “Activity as acyl-donor of YncA (in words)” value (shortened to “Activity as acyl-donor”) ([2]; methionine as substrate) was “worked properly as an acyl donor”, the “% Activity (activity of YncA with respect to the co-substrate Acetyl-coA)” value ([2]; methionine as substrate) was 100% and the “Specific Activity” value [2, 7] was 745 mUI/mg protein.

For CS(=O)(=O)CC[C@H](N)C(=O)O [Methionine sulfone], the “% Activity (activity with respect to the substrate methionine)” value ([2]; Acetyl-coA as acyl-donor) was 178.8%, the “Specific Activity” value [2, 6] was 1332 mUI/mg protein and the “Activity as substrate of YncA (in words)” value [2] was “Strong activities”.

For CCC(=O)SCCNC(=O)CCNC(=O)[C@H](O)C(C)(C)COP(=O)(O)OP(=O)(O)OC[C@H]1O[C@@H](n2cnc3c(N)ncnc32)[C@H](O)[C@@H]1OP(=O)(O)O [Propionyl-coA], the “Activity as acyl-donor” value ([2]; methionine as substrate) was “preferred acyl-donor”, the “% Activity (activity of YncA with respect to the co-substrate Acetyl-coA)” value ([2]; methionine as substrate) was 140% and the “Specific Activity” value [2, 7] was 1039 mUI/mg protein.

With N[C@@H](CCC(=O)O)C(=O)O [Glutamate] the “% Activity (activity with respect to the substrate methionine)” value ([2]; Acetyl-coA as acyl-donor) was 0.6%, the “Specific Activity” value [2, 6] was 4 mUI/mg protein and the “Activity as substrate of YncA (in words)” value [2] was “Weak activities”.

In the case of NC(=O)C[C@H](N)C(=O)O [Asparagine], the “% Activity (activity with respect to the substrate methionine)” value ([2]; Acetyl-coA as acyl-donor) is reported as 2.4%, the “Specific Activity” value [2, 6] is reported as 18 mUI/mg protein and the “Activity as substrate of YncA (in words)” value [2] is reported as “Weak activities”.

For NCCCC[C@H](N)C(=O)O [Lysine], the “% Activity (activity with respect to the substrate methionine)” value ([2]; Acetyl-coA as acyl-donor) was 1.6%, the “Specific Activity” value [2, 6] was 12 mUI/mg protein and the “Activity as substrate of YncA (in words)” value [2] was “Weak activities”.

For N[C@@H](CC(=O)O)C(=O)O [Aspartate], the “% Activity (activity with respect to the substrate methionine)” value ([2]; Acetyl-coA as acyl-donor) was 1%.

With CS(=N)(=O)CC[C@H](N)C(=O)O (stereo partly drawn) [Methionine sulfoximine] the “% Activity (activity with respect to the substrate methionine)” value ([2]; Acetyl-coA as acyl-donor) was 166.9%, the “Specific Activity” value [2, 6] was 1243 mUI/mg protein and the “Activity as substrate of YncA (in words)” value [2] was “Strong activities”.

With CCCC(=O)SCCNC(=O)CCNC(=O)[C@H](O)C(C)(C)COP(=O)(O)OP(=O)(O)OC[C@H]1O[C@@H](n2cnc3c(N)ncnc32)[C@H](O)[C@@H]1OP(=O)(O)O [Butyryl-coA] the “Activity as acyl-donor” value ([2]; methionine as substrate) was “weak activities”, the “% Activity (activity of YncA with respect to the co-substrate Acetyl-coA)” value ([2]; methionine as substrate) was 17% and the “Specific Activity” value [2, 7] was 129 mUI/mg protein.

With C[S+]([O-])CC[C@H](N)C(=O)O (stereo partly drawn) [Methionine sulfoxide] the “% Activity (activity with respect to the substrate methionine)” value ([2]; Acetyl-coA as acyl-donor) was 147.6%, the “Specific Activity” value [2, 6] was 1100 mUI/mg protein and the “Activity as substrate of YncA (in words)” value [2] was “Strong activities”.

For CSCC[C@@H](NC(C)=O)C(=O)O [N-acetyl-D-methionine], the Incorporation by animals [4] is listed as “not incorporated as well as its L-isomer”.

For NC(=O)CC[C@H](N)C(=O)O [Glutamine], the “% Activity (activity with respect to the substrate methionine)” value ([2]; Acetyl-coA as acyl-donor) was 1.4%, the “Specific Activity” value [2, 6] was 10 mUI/mg protein and the “Activity as substrate of YncA (in words)” value [2] was “Weak activities”.

B1: Purified Protein: Purified methionine N-acyl transferase from E. coli, identified as YncA, a GCN5 related acyl transferase, SEQ ID NO: 1 (protein, listed as Escherichia coli)
chain: MSIRFARKADCAAIAEIYNHAVLYTAAIWNDQTVDADNRIAWFEARTLAGYPVLVSEENGVVTGYASFGDWRSFDGFRHTVEHSVYVHPDHQGKGLGRKLLSRLIDEARDCGKHVMVAGIESQNQASLHLHQSLGFVVTAQMPQVGTKFGRWLDLTFMQLQLDERTEPDAIG
With B1 the “Specific Activity” value ([5]; methionine N-acyl transferase activity) was 19689 mUI/mg prot and the Activity ([5]; total methionine N-acyl transferase activity) was 0.126 UI.
